Results on 20 molecules are retold here after BindingDB's records for doi:10.1021/jm00089a013 (Merck Sharp and Dohme Research Laboratories, 1992).

The nature of this assay: In vitro binding affinity against sigma receptor by using [3H]-DTG ([3H]-6) as radioligand in guinea pig cerebellum.

pIC50: −log10 of the molar value.

Regarding `O=[N+]([O-])c1ccc(CN2CCC3(CCCc4ccccc43)CC2)cc1`, the pIC50 (usually the IC50 on a negative log10 scale, so that one unit is a factor of ten) was 7.85. As for `c1ccc(CCN2CCC3(CCc4ccccc43)CC2)cc1`, the pIC50 was 8.55.

Molecule `c1ccc2c(c1)CCCC21CCN(CC2CCCO2)CC1` (stereo not given) showed a pIC50 of 8.26. As for `c1coc(CN2CCC3(CCCc4ccccc43)CC2)c1`, the pIC50 was 8.02.

Molecule `CCCCN1CCC2(CCc3ccccc32)CC1` had a pIC50 of 8.70. This pIC50 is 0.68 log units higher than that of the molecule before. Regarding `Clc1ccc(CN2CCC3(CCCc4ccccc43)CC2)cc1`, the negative logarithm of the IC50 (pIC50) is 8.17.

In turn, `CCCCCCN1CCC2(CCCc3ccccc32)CC1` gave a pIC50 of 8.54. Take `COc1ccc(CN2CCC3(CCc4ccccc43)CC2)cc1`: the pIC50 was 8.46. In the case of `c1csc(CN2CCC3(CCCc4ccccc43)CC2)c1` it was 8.20. The molecule `c1ccc(CN2CCC3(CCc4ccccc43)CC2)nc1` showed a pIC50 of 7.80. `c1ccc(CN2CCC3(CCCCc4ccccc43)CC2)cc1` showed a negative-log IC50 (pIC50) of 8.17. In turn, `c1ccc2c(c1)CCCC21CCN(CC2CC2)CC1` gave a pIC50 of 8.00. In the case of `Cc1ccc2c(c1)CCCC21CCN(Cc2ccccc2)CC1` it was 8.26; in that of `COc1ccc(CN2CCC3(CCCc4ccccc43)CC2)cc1`, 8.77.

The molecule `C=CCN1CCC2(CCCc3ccccc32)CC1` showed a pIC50 of 7.74. `Oc1ccc2c(c1)C1(CCC2)CCN(Cc2ccccc2)CC1` gave a pIC50 of 7.16. Against the preceding molecule, the pIC50 is 0.58 log units lower.

Consider `CCCCN1CCC2(CCCCc3ccccc32)CC1`, for which the pIC50 was 8.32.

Turning to `c1ccc(CCN2CCC3(CCCc4ccccc43)CC2)cc1`, the pIC50 was 8.30.

In turn, `Cc1ccc(CN2CCC3(CCc4ccccc43)CC2)cc1` gave a pIC50 of 8.23.

Molecule `C=CCCN1CCC2(CCCc3ccccc32)CC1` gave a pIC50 of 8.18.
